Reference: patent US20250313535A1, “ALPHA 4 BETA 7 INTEGRIN MODULATORS AND USES THEREOF” (DICE MOLECULES SV, INC., priority 2022, published 2025)
Like-named read-outs stand apart in the source and are kept apart here.

Columns and labels:
[1] = biological target: α4β1 integrin (Homo sapiens (Human), UniProt P05556+P13612); assay: Integrin Adhesion Assay: Protocol 5 (VCAM-coated plate, RPMI-8866 cells with stable LOF mutation of the ITGB7 gene); type: cell-based
How it was run: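 RPMI-8866 B cells with CRISPR/Cas9 ITGB7 knockout (clonal, verified by flow cytometry) adhered to VCAM-coated wells for 1 h at 37° C in HEPES/NaCl buffer with 1 mM MnCl2, 0.1 mM CaCl2, 1% BSA, 1% DMSO. Bound cells quantified by CellTiter-Glo luminescence after washing; % inhibition versus DMSO and control, 4-parameter fit.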

[2] = biological target: α4β7 integrin (Homo sapiens (Human), UniProt P13612+P26010); assay: Integrin Adhesion Assay: Protocol 4 (MAdCAM-coated plate, RPMI-8866 cells with stable LOF mutation of the ITGB1 gene); type: cell-based
How it was run: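 RPMI-8866 cells with CRISPR/Cas9 knockout of ITGB1 (2×10^6/mL) were added to MAdCAM-coated wells with compound (1% DMSO) in HEPES/NaCl buffer with 1 mM MnCl2, 0.1 mM CaCl2 and 1% BSA, then incubated 1 h at 37 °C. After four washes, adherent cells were quantified by CellTiter-Glo luminescence. Percent inhibition versus DMSO and control compound was fitted to 4-parameter curves.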

[3] = RPMI-8866 cells with stable LOF mutation of the ITGB7 gene, read-out: Mean IC50 α4β1 KO^b
[4] = RPMI-8866 cells with stable LOF mutation of the ITGB1 gene, read-out: Mean IC50 α4β7 KO^a
[5] = Protocol 5, RPMI-8866 cells with LOF mutation of ITGB7, VCAM, read-out: Mean IC50 α4β1 KO
[6] = Protocol 4, RPMI-8866 cells with LOF mutation of ITGB1, MAdCAM, read-out: Mean IC50 α4β7 KO

α4β7 integrin, sequence (P13612 34-1032): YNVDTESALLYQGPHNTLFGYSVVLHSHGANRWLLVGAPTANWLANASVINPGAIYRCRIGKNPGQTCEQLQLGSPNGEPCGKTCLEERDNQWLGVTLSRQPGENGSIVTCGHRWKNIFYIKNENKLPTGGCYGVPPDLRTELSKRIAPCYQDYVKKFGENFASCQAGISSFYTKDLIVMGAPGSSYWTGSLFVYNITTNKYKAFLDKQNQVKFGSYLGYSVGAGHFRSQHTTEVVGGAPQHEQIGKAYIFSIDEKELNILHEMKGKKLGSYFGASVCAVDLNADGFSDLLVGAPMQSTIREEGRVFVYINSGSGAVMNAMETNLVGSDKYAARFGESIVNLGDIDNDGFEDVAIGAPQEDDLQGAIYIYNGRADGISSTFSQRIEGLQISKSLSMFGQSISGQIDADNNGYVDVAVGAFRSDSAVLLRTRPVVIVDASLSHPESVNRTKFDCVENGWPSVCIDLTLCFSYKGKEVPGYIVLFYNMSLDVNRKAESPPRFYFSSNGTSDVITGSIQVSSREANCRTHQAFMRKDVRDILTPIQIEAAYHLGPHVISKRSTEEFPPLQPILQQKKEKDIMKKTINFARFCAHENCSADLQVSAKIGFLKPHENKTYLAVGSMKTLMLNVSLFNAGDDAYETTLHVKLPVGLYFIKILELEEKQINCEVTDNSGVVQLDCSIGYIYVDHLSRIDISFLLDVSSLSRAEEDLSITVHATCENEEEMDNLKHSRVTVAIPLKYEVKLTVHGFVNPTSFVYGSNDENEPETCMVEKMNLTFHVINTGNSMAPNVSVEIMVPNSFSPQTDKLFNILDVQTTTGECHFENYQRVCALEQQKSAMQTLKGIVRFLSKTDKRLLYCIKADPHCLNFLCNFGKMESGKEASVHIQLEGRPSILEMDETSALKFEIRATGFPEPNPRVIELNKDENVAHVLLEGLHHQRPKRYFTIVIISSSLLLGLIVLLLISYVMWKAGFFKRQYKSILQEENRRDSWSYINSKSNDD
α4β7 integrin, sequence (P26010 20-798): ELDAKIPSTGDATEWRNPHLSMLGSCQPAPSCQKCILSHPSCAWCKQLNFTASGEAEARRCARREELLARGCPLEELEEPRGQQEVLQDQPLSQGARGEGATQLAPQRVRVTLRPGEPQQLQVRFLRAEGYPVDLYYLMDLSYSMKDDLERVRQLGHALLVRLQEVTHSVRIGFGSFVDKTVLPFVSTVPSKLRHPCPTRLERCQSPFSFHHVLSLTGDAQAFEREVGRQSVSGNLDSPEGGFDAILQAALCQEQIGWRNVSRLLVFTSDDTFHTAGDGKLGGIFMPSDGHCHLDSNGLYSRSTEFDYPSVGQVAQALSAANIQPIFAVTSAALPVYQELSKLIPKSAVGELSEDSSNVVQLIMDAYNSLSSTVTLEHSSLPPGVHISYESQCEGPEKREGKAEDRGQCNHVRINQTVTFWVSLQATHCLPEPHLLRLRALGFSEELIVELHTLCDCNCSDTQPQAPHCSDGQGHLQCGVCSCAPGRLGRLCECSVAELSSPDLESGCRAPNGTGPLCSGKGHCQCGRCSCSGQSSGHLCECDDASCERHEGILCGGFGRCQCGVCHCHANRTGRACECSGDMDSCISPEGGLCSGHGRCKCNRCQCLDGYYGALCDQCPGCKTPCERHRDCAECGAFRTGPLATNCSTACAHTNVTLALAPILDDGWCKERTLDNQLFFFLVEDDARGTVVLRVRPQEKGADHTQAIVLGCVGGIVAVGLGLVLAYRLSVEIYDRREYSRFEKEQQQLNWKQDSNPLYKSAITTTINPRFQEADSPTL
α4β1 integrin, sequence (P13612 34-1032): as the sequence (P13612 34-1032) above
α4β1 integrin, sequence (P05556 21-798): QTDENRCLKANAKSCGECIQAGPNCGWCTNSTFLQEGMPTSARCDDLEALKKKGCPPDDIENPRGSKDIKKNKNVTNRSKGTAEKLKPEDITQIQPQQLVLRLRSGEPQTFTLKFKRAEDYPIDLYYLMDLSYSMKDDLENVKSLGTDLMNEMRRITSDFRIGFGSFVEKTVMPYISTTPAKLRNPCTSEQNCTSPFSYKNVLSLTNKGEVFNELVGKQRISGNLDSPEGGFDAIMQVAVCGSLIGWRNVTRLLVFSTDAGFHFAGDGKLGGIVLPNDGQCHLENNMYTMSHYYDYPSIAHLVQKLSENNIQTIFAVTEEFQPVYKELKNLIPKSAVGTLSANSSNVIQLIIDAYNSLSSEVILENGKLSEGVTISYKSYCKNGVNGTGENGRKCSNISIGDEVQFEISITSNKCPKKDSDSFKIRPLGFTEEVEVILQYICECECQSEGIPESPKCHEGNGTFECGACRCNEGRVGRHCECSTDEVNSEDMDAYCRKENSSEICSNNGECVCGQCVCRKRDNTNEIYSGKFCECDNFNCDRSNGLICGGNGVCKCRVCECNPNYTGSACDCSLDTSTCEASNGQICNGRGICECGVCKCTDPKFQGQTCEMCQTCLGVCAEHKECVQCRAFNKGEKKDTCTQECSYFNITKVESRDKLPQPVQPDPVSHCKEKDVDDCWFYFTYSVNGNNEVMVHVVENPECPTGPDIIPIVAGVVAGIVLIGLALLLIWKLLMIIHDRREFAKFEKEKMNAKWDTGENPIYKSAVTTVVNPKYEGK

Structure (SMILES) | IC50 [1, 3] [nM] | IC50 [2, 4] [nM] | IC50 [1, 5] [nM] | IC50 [2, 6] [nM]
Cn1c(=O)c(-c2cccc3c(C[C@H](NC(=O)C4(C(F)(F)F)CCN(C(C)(C)C(F)(F)F)CC4)C(=O)O)cccc23)c(C(F)(F)F)c2ccccc21 [Compound 489] | > 1000 | 100 to 1000 | – | –
COc1cc(CN2CCC(C)(C)CC2)cnc1-c1cccc2c(C[C@H](NC(=O)c3c(C)cccc3F)C(=O)O)cccc12 [Compound 1005] | – | – | > 1000 | 10 to 100
O=C(O)[C@H](Cc1cccc2c(-c3ncc(CCN4CCC(F)(F)CC4)c4ccccc34)cccc12)NC(=O)C1(C(F)(F)F)CCN(CC(F)(F)F)CC1 [Compound 980] | – | – | > 1000 | 10 to 100
COc1ccc(CN2CCCCC2)c(OC)c1-c1cccc2c(C[C@H](NC(=O)c3c(F)cccc3-c3ccccc3)C(=O)O)cccc12 [Compound 648] | > 1000 | < 10 | – | –
COc1ccc2cccnc2c1-c1cccc2c(C[C@H](NC(=O)c3c(F)cccc3F)C(=O)O)cccc12 [Compound 501] | > 1000 | 100 to 1000 | – | –
O=C(O)[C@H](Cc1cccc2c(-c3nccc4c(CN5CCC6(CCCCC6)CC5)cccc34)cccc12)NC(=O)C1(C(F)(F)F)CCN(CC(F)(F)F)CC1 [Compound 661] | > 1000 | 10 to 100 | – | –
COc1ccc(CN2CCC(F)(F)CC2)c(C(F)(F)F)c1-c1cccc2c(C[C@H](NC(=O)c3c(C)cccc3F)C(=O)O)cccc12 [Compound 823] | – | – | > 1000 | 100 to 1000
O=C(O)[C@H](Cc1cccc2c(-c3ncc(CN4C5CCCC4CC5)c4ccccc34)cccc12)NC(=O)C1(C(F)(F)F)CCN(CC(F)(F)F)CC1 [Compound 884] | – | – | > 1000 | < 10
COc1ccc(CN2CC(C(F)(F)F)C2)c(OC)c1-c1cccc2c(C[C@H](NC(=O)C3(C(F)(F)F)CCN(CC(F)(F)F)CC3)C(=O)O)cccc12 [Compound 814] | – | – | > 1000 | 10 to 100
CCN(CC)Cc1ccc(OC)c(-c2cccc3c(C[C@H](NC(=O)c4c(C)cccc4F)C(=O)O)cccc23)c1OC [Compound 622] | 100 to 1000 | < 10 | – | –
COc1ccc(CCN2CCC3(CCCCC3)CC2)c(OC)c1-c1cccc2c(C[C@H](NC(=O)C3(C(F)(F)F)CCN(CC(F)(F)F)CC3)C(=O)O)cccc12 [Compound 957] | – | – | 100 to 1000 | < 10
O=C(O)[C@H](Cc1cccc2c(-c3ncc(CN4CCCCC4)cc3Cl)cccc12)NC(=O)C1(C(F)(F)F)CCN(CC(F)(F)F)CC1 [Compound 761] | – | – | > 1000 | 10 to 100
Cc1cc(CN2CCC(C(F)(F)F)CC2)cnc1-c1cccc2c(C[C@H](NC(=O)C3(C(F)(F)F)CCN(C4COC4)CC3)C(=O)O)cccc12 [Compound 900] | – | – | > 1000 | < 10
COc1ccc(CN2CCC(F)(F)CC2)c(OC)c1-c1cccc2c(C[C@H](NC(=O)c3c(F)cncc3Cl)C(=O)O)cccc12 [Compound 614] | 100 to 1000 | 10 to 100 | – | –
COc1cccc(CCN2CCC[C@@H](F)C2)c1-c1cccc2c(C[C@H](NC(=O)c3c(C)cccc3F)C(=O)O)cccc12 [Compound 1036] | – | – | > 1000 | < 10
CN1CCC(Cc2ccc3ccnc(-c4cccc5c(C[C@H](NC(=O)C6(C(F)(F)F)CCN(CC(F)(F)F)CC6)C(=O)O)cccc45)c3c2)CC1 [Compound 990] | – | – | > 1000 | < 10
O=C(O)[C@H](Cc1cccc2c(-c3ncc(CN4CCOC(C(F)(F)F)C4)c4ccccc34)cccc12)NC(=O)C1(C(F)(F)F)CCN(CC(F)F)CC1 (stereo partly drawn) [Compound 858] | – | – | > 1000 | 10 to 100
CC[C@H]1CCCN1Cc1cnc(-c2cccc3c(C[C@H](NC(=O)C4(C(F)(F)F)CCN(CC(F)(F)F)CC4)C(=O)O)cccc23)c2ccccc12 [Compound 933] | – | – | 100 to 1000 | < 10
Cn1c(=O)c(-c2cccc3c(C[C@H](NC(=O)C4(C(F)(F)F)CCN(CC(F)F)CC4)C(=O)O)cccc23)c(C(F)(F)F)c2cc(CN3CCC(F)(F)CC3)ccc21 [Compound 836] | – | – | 10 to 100 | 10 to 100
O=C(O)[C@H](Cc1cccc2c(-c3ncc(CN4C5CCCC4CC5)c4ccccc34)cccc12)NC(=O)C1(C(F)(F)F)CCN(CC(F)F)CC1 [Compound 911] | – | – | > 1000 | < 10

Structure (SMILES) | IC50 [1, 3] [nM] | IC50 [2, 4] [nM] | IC50 [1, 5] [nM] | IC50 [2, 6] [nM]
COc1cc(CN2CCC(F)(F)C2)cc(OC)c1-c1cccc2c(C[C@H](NC(=O)C3(C(F)(F)F)CCN(CC(F)(F)F)CC3)C(=O)O)cccc12 [Compound 797] | – | – | > 1000 | < 10
COc1ccc(CCN(C)C)c(OC)c1-c1cccc2c(C[C@H](NC(=O)C3(C(F)(F)F)CCN(CC(F)(F)F)CC3)C(=O)O)cccc12 [Compound 468] | 100 to 1000 | < 10 | – | –
COc1cc(CN2CCC(C)(C)CC2)cnc1-c1cccc2c(C[C@H](NC(=O)C3(C(F)(F)F)CCN(CC(F)(F)F)CC3)C(=O)O)cccc12 [Compound 890] | – | – | > 1000 | < 10
COc1ccc(CN2CCCC(F)C2)c(OC)c1-c1cccc2c(C[C@H](NC(=O)c3c(C)cccc3F)C(=O)O)cccc12 (stereo partly drawn) [Compound 1012] | – | – | > 1000 | < 10
CC1(C(=O)N[C@@H](Cc2cccc3c(-c4ncc(CN5CCCCC5)c5ccccc45)cccc23)C(=O)O)CC2CCC(C1)N2C1COC1 (stereo partly drawn) [Compound 685] | > 1000 | 10 to 100 | – | –
COc1ccc(CN2CCCCC2)c(C(F)(F)F)c1-c1cccc2c(C[C@H](NC(=O)C3(C(F)(F)F)CCN(CC(F)(F)F)CC3)C(=O)O)cccc12 [Compound 564] | 100 to 1000 | < 10 | – | –
O=C(O)[C@H](Cc1cccc2c(-c3ncc(CN4CCCCC4)c4c3CCCC4)cccc12)NC(=O)C1(C(F)(F)F)CCN(CC(F)(F)F)CC1 [Compound 746] | – | – | > 1000 | < 10
O=C(O)[C@H](Cc1cccc2c(-c3ccccc3OCCN3CCCCC3)cccc12)NC(=O)C1(C(F)(F)F)CCN(CC(F)(F)F)CC1 [Compound 749] | – | – | > 1000 | 10 to 100
O=C(O)[C@H](Cc1cccc2c(-c3ncc(CN4CCC[C@H](F)C4)cc3C3CC3)cccc12)NC(=O)C1(C(F)(F)F)CCN(CC(F)(F)F)CC1 [Compound 950] | – | – | > 1000 | < 10
COc1ccc(CN2CCC(F)(F)CC2)c(OC)c1-c1cccc2c(C[C@H](NC(=O)C3(C(F)(F)F)CCN([C@H]4COC[C@@H]4F)CC3)C(=O)O)cccc12 [Compound 669] | > 1000 | < 10 | – | –
COc1cccc(CCN2CCC(F)(F)CC2)c1-c1cccc2c(C[C@H](NC(=O)c3c(C)cccc3F)C(=O)O)cccc12 [Compound 1034] | – | – | > 1000 | 10 to 100
O=C(O)[C@H](Cc1cccc2c(-c3ncc(CN4CCOCC4)c4ccccc34)cccc12)NC(=O)C1(C(F)(F)F)CCN(CC(F)(F)F)CC1 [Compound 862] | – | – | > 1000 | < 10
COc1cc(C(F)(F)F)c(CN2CCCCC2)cc1-c1cccc2c(C[C@H](NC(=O)c3c(C)cccc3F)C(=O)O)cccc12 [Compound 1025] | – | – | > 1000 | 10 to 100
COc1ccc2c(c1-c1cccc3c(C[C@H](NC(=O)C4(C(F)(F)F)CCN(CC(F)(F)F)CC4)C(=O)O)cccc13)CN(CC(F)F)CC2 [Compound 753] | – | – | > 1000 | 10 to 100
CC[C@H]1CCCCN1Cc1cnc(-c2cccc3c(C[C@H](NC(=O)C4(C(F)(F)F)CCN(CC(F)F)CC4)C(=O)O)cccc23)c2ccccc12 [Compound 930] | – | – | 100 to 1000 | < 10
COc1ccc(CN2CCC2)c(OC)c1-c1cccc2c(C[C@H](NC(=O)c3c(C)cccc3F)C(=O)O)cccc12 [Compound 628] | 100 to 1000 | < 10 | – | –
COc1ccc(CN(C)C)c(OC)c1-c1cccc2c(C[C@H](NC(=O)c3c(F)cccc3C3CC3)C(=O)O)cccc12 [Compound 645] | > 1000 | < 10 | – | –
COc1cc(CCN(C)C)cc(OC)c1-c1cccc2c(C[C@H](NC(=O)C3(C(F)(F)F)CCN(CC(F)(F)F)CC3)C(=O)O)cccc12 [Compound 531] | 100 to 1000 | < 10 | – | –
Cc1cccc(F)c1C(=O)N[C@@H](Cc1cccc2c(-c3c(C(F)(F)F)c4cc(CN5CCCCC5)ccc4n(C)c3=O)cccc12)C(=O)O [Compound 1030] | – | – | 100 to 1000 | < 10
